In patent US20250295668A1, “METHODS FOR INDUCING COLANIC ACID BIOSYNTHESIS” (priority 2024, published 2025):

How the values were obtained:
cps operon = experiment: Disk diffusion assay for cps induction, SG20781 cpsB::lacZ reporter; type: cell-based, E. coli; conditions: SG20781, filter paper disks 10 or 100 μg, 24 hours at 37° C.
Protocol: For antibiotic screening targeting cps expression, the SG20781 strain (MC4100 lon+cpsB10::lacZ Mu-immλ) was used. The bacteria were cultured overnight at 37° C. in Luria-Broth (LB) medium and evenly plated on X-gal (40 μg/mL) supplemented LB agar plates, and incubated overnight.
E. coli strain SG20781 was used to assess antibiotic cps induction via disk diffusion as previously described [PMID: 14553918]. In brief, an overnight bacteria culture was spread onto LB agar containing 0.1 mg ml-1 5-bromo-4-chloro-3-indolyl-β-D-galactoside (X-gal). […] The soaked filter papers were placed onto the bacteria-seeding plates and incubated for 24 hours at 37° C.
Certain β-lactam antibiotics trigger the overexpression of the cps operon in E. coli [PMID: 14553918]. To validate this finding, a disk diffusion assay was performed using SG20781, an E. coli strain that harbors a LacZ reporter for the cps operon transcriptional regulation. Using a colorimetric assay, an increased level of […] reacts with X-gal, resulting in an intensified blue coloration as a result of the transcriptional up-regulation of the cps operon.

PBP4 = PBP4 (Escherichia coli, UniProt P24228); conditions: literature, PMID 25733506; cited from earlier work
wildtype E. coli = experiment: Colanic acid measurement (fucose quantification) in wildtype E. coli culture medium; type: cell-based
Protocol: For colanic acid quantification, E. coli Keio mutants and the parental strain BW25113 were cultured overnight at 37° C. in M9 minimum medium [PMID: 28436966]. Bacteria were then removed by centrifugation and filtered for colanic acid measurement.
The desired bacterial strain was first inoculated and cultured in M9 minimum medium overnight at 37° C. to obtain the seeding culture. The OD 600 was measured, and the seeding bacteria were diluted to OD600=0.02 in M9 minimum medium for another 16 hours. After the incubation, bacterial cultures were collected in 50 mL tubes, spun down at 4,000 g at 4° C. for 30 min, filtered, and 25 mL of supernatant was collected per 50 ml conical tube. Ice-cold 100% ethanol (EtOH) was added to make a final 50% EtOH solution for precipitation, and the mixture was kept at 4° C. overnight. Once precipitation occurred, the liquid was carefully removed after centrifugation at 4,000 g at 4° C. for 50 min. The pellet was washed once with cold 80% EtOH and then air-dried in a hood. The pellet from every 50 mL culture was resuspended in 500 μL distilled H2O. The solution was sonicated for 60 minutes at 37° C., followed by centrifugation at 4000 g at 4° C. for 10 minutes. A 200 μL sample was mixed with 30 μL hydrochloric acid (320331-500 mL, Sigma-Aldrich) and boiled for 2 hours. Subsequently, 60 μL 5M NaOH and 150 μL NaHCO3/NaOH buffer were added to reach a pH of 6-8, calibrated by 1M HCl or NaOH solutions. The fucose quantification assay was then carried out using a K-FUCOSE kit (Megazyme) according to the manufacturer's protocol.
Next, colanic acid in the bacteria culture medium was quantified via monosaccharide-fucose-from acid-hydrolyzed polysaccharide precipitates. […] Calculations were performed to determine the equivalent dosage by weight in a mammalian subject. Briefly, a typical mouse consumes 5-10 ml of water per day and weighs between 30-40 g. Using the 1.8 μg/mL concentration, a lower bound of 0.225 mg/kg (0.0018 mg/mL×5 ml[…]0.04 kg) and a higher bound of 0.6 mg/kg (0.0018 mg/mL×10 ml÷0.03 kg) were identified. […] In wild-type bacteria treated with cephaloridine and Alon E. coli mutants colanic acid production increased during the exponential growth phase and remained elevated in the stationary phase (FIG. 1D).

Structure (SMILES) | cps induction (blue coloration) (cps operon) | affinity for PBP4 (PBP4) | colanic acid production vs untreated wildtype control (wildtype E. coli; penicillin G 5 μg/mL) | colanic acid production vs untreated wildtype control (wildtype E. coli; cephalothin 0.625 μg/mL)
CC1(C)S[C@@H]2[C@H](NC(=O)[C@H](N)c3ccccc3)C(=O)N2[C@H]1C(=O)O [ampicillin] | promote various shades of blue coloration | higher affinity for PBP4 | – | –
CC1(C)S[C@@H]2[C@H](NC(=O)Cc3ccccc3)C(=O)N2[C@H]1C(=O)O [penicillin G] | promote various shades of blue coloration | higher affinity for PBP4 | 3.25 fold | –
CC(=O)OCC1=C(C(=O)O)N2C(=O)[C@@H](NC(=O)Cc3cccs3)[C@H]2SC1 [cephalothin] | promote various shades of blue coloration | – | – | 3.5 fold
Cc1nnc(SCC2=C(C(=O)O)N3C(=O)[C@@H](NC(=O)Cn4cnnn4)[C@H]3SC2)s1 [cefazolin] | promote various shades of blue coloration | – | – | –
CC1(C)S[C@@H]2[C@H](NC(=O)C(C(=O)O)c3ccccc3)C(=O)N2[C@H]1C(=O)O (stereo partly shown) [carbenicillin] | promote various shades of blue coloration | – | – | –
CO/N=C(\C(=O)N[C@@H]1C(=O)N2C(C(=O)O)=C(COC(N)=O)CS[C@H]12)c1ccco1 [cefuroxime] | promote various shades of blue coloration | – | – | –
